Experimental data as given in paper PMC5433425 (PeerJ, 2017).

Key:
E. coli AG100A = assay: microbe, parasite or virus in culture; type: cell-based, Escherichia coli
Method: The minimum inhibitory concentrations (MICs) were determined using the broth microdilution method according to the CLSI guidelines ([Clinical and Laboratory Standards Institute, 2014]). […] Two-fold serial dilutions of the compounds were made to achieve the following concentrations: 320 µM–40 µM. The MICs were determined as the lowest concentration at which no visible growth was observed after 18 h of incubation at 37 °C. The assays were performed in triplicate and the MIC value was given as result of at least two concordant values.

E. coli AG100tet = assay: EtBr efflux by real-time fluorometry; conditions: 80 µM
Method: Control tubes with only cells and cells with and without 0.4% glucose were included. The fluorescence was measured in a Rotor-Gene 3000 and the data was acquired every 30 s for 30 min at 37 °C. The efflux activity was quantified by comparing the fluorescence data obtained under conditions that promote efflux (presence of glucose and absence of efflux inhibitor) with the data from the control in which the bacteria are under conditions of no efflux (presence of an inhibitor and no energy source).

Compound: CCCOc1ccc(-c2cc(OCCN3CCNCC3)c3ccccc3n2)cc1 [PQQ4R, 4-(2-(piperazin-1-yl)ethoxy)-2-(4-propoxyphenyl) quinolone]
- MIC of EtBr in presence of the efflux inhibitor (E. coli AG100A; AG100A, inhibitor 40 μM): 0.39 µg/mL
- MIC of OFX in presence of the efflux inhibitor (E. coli AG100A; AG100A, inhibitor 40 μM): 0.03 µg/mL
- MIC of OXA in presence of the efflux inhibitor (E. coli AG100A; AG100A, inhibitor 40 μM): 1 µg/mL
- MIC of TET in presence of the efflux inhibitor (E. coli AG100A; AG100A, inhibitor 40 μM): 0.25 µg/mL
- effect on the MIC of the antibiotics (E. coli AG100A; AG100A, inhibitor 40 μM): no effect
- reduction in EtBr MIC (E. coli AG100A; AG100A, inhibitor 40 μM): ≈ 8 fold
- growth of AG100A in presence of the inhibitor (E. coli AG100A; concentrations above 40 µM): did not grow
- Fluorescence raw data, Channel Cycling A.530/585hp (E. coli AG100tet; cycle 1, + glucose): 3.509
- Fluorescence raw data, Channel Cycling A.530/585hp (E. coli AG100tet; cycle 1, without glucose): 3.29
- Fluorescence raw data, Channel Cycling A.530/585hp (E. coli AG100tet; cycle 2, + glucose): 3.253
- Fluorescence raw data, Channel Cycling A.530/585hp (E. coli AG100tet; cycle 2, without glucose): 3.046
- Fluorescence raw data, Channel Cycling A.530/585hp (E. coli AG100tet; cycle 3, + glucose): 3.181
- Fluorescence raw data, Channel Cycling A.530/585hp (E. coli AG100tet; cycle 3, without glucose): 3.057
- Fluorescence raw data, Channel Cycling A.530/585hp (E. coli AG100tet; cycle 4, without glucose): 3.005
- Fluorescence raw data, Channel Cycling A.530/585hp (E. coli AG100tet; cycle 5, without glucose): 2.971
- Fluorescence raw data, Channel Cycling A.530/585hp (E. coli AG100tet; cycle 6, without glucose): 3.106
- Fluorescence raw data, Channel Cycling A.530/585hp (E. coli AG100tet; cycle 7, without glucose): 3.154
- Fluorescence raw data, Channel Cycling A.530/585hp (E. coli AG100tet; cycle 8, without glucose): 3.202
- Fluorescence raw data, Channel Cycling A.530/585hp (E. coli AG100tet; cycle 9, + glucose): 3.419
- Fluorescence raw data, Channel Cycling A.530/585hp (E. coli AG100tet; cycle 9, without glucose): 3.159
- Fluorescence raw data, Channel Cycling A.530/585hp (E. coli AG100tet; cycle 10, + glucose): 3.524
- Fluorescence raw data, Channel Cycling A.530/585hp (E. coli AG100tet; cycle 10, without glucose): 3.043
- Fluorescence raw data, Channel Cycling A.530/585hp (E. coli AG100tet; cycle 11, + glucose): 3.644
- Fluorescence raw data, Channel Cycling A.530/585hp (E. coli AG100tet; cycle 11, without glucose): 3.142
- Fluorescence raw data, Channel Cycling A.530/585hp (E. coli AG100tet; cycle 12, + glucose): 3.857
- Fluorescence raw data, Channel Cycling A.530/585hp (E. coli AG100tet; cycle 12, without glucose): 3.158
- Fluorescence raw data, Channel Cycling A.530/585hp (E. coli AG100tet; cycle 13, + glucose): 3.873
- Fluorescence raw data, Channel Cycling A.530/585hp (E. coli AG100tet; cycle 13, without glucose): 3.143
- Fluorescence raw data, Channel Cycling A.530/585hp (E. coli AG100tet; cycle 14, + glucose): 3.954
- Fluorescence raw data, Channel Cycling A.530/585hp (E. coli AG100tet; cycle 14, without glucose): 3.212
- Fluorescence raw data, Channel Cycling A.530/585hp (E. coli AG100tet; cycle 15, + glucose): 4.044
- Fluorescence raw data, Channel Cycling A.530/585hp (E. coli AG100tet; cycle 15, without glucose): 3.129
- Fluorescence raw data, Channel Cycling A.530/585hp (E. coli AG100tet; cycle 16, + glucose): 4.17
- Fluorescence raw data, Channel Cycling A.530/585hp (E. coli AG100tet; cycle 16, without glucose): 3.186
- Fluorescence raw data, Channel Cycling A.530/585hp (E. coli AG100tet; cycle 17, + glucose): 4.316
- Fluorescence raw data, Channel Cycling A.530/585hp (E. coli AG100tet; cycle 17, without glucose): 3.1931
- Fluorescence raw data, Channel Cycling A.530/585hp (E. coli AG100tet; cycle 18, + glucose): 4.457
- Fluorescence raw data, Channel Cycling A.530/585hp (E. coli AG100tet; cycle 18, without glucose): 3.175
- Fluorescence raw data, Channel Cycling A.530/585hp (E. coli AG100tet; cycle 19, + glucose): 4.5
- Fluorescence raw data, Channel Cycling A.530/585hp (E. coli AG100tet; cycle 19, without glucose): 3.177
- Fluorescence raw data, Channel Cycling A.530/585hp (E. coli AG100tet; cycle 20, + glucose): 4.55
- Fluorescence raw data, Channel Cycling A.530/585hp (E. coli AG100tet; cycle 20, without glucose): 3.2463
- Fluorescence raw data, Channel Cycling A.530/585hp (E. coli AG100tet; cycle 21, + glucose): 4.567
- Fluorescence raw data, Channel Cycling A.530/585hp (E. coli AG100tet; cycle 21, without glucose): 3.257
- Fluorescence raw data, Channel Cycling A.530/585hp (E. coli AG100tet; cycle 22, + glucose): 4.692
- Fluorescence raw data, Channel Cycling A.530/585hp (E. coli AG100tet; cycle 22, without glucose): 3.214
- Fluorescence raw data, Channel Cycling A.530/585hp (E. coli AG100tet; cycle 23, + glucose): 4.73
- Fluorescence raw data, Channel Cycling A.530/585hp (E. coli AG100tet; cycle 23, without glucose): 3.261
- Fluorescence raw data, Channel Cycling A.530/585hp (E. coli AG100tet; cycle 24, + glucose): 4.823
- Fluorescence raw data, Channel Cycling A.530/585hp (E. coli AG100tet; cycle 24, without glucose): 3.277
- Fluorescence raw data, Channel Cycling A.530/585hp (E. coli AG100tet; cycle 25, + glucose): 4.864
- Fluorescence raw data, Channel Cycling A.530/585hp (E. coli AG100tet; cycle 25, without glucose): 3.306
- Fluorescence raw data, Channel Cycling A.530/585hp (E. coli AG100tet; cycle 26, + glucose): 4.922
- Fluorescence raw data, Channel Cycling A.530/585hp (E. coli AG100tet; cycle 26, without glucose): 3.351
- Fluorescence raw data, Channel Cycling A.530/585hp (E. coli AG100tet; cycle 27, + glucose): 4.884
- Fluorescence raw data, Channel Cycling A.530/585hp (E. coli AG100tet; cycle 27, without glucose): 3.344
- Fluorescence raw data, Channel Cycling A.530/585hp (E. coli AG100tet; cycle 28, + glucose): 5.012
- Fluorescence raw data, Channel Cycling A.530/585hp (E. coli AG100tet; cycle 28, without glucose): 3.341
- Fluorescence raw data, Channel Cycling A.530/585hp (E. coli AG100tet; cycle 29, + glucose): 5.042
- Fluorescence raw data, Channel Cycling A.530/585hp (E. coli AG100tet; cycle 29, without glucose): 3.312
- Fluorescence raw data, Channel Cycling A.530/585hp (E. coli AG100tet; cycle 30, + glucose): 5.087
- Fluorescence raw data, Channel Cycling A.530/585hp (E. coli AG100tet; cycle 30, without glucose): 3.355
- Fluorescence raw data, Channel Cycling A.530/585hp (E. coli AG100tet; cycle 31, + glucose): 5.094
- Fluorescence raw data, Channel Cycling A.530/585hp (E. coli AG100tet; cycle 31, without glucose): 3.321
- Fluorescence raw data, Channel Cycling A.530/585hp (E. coli AG100tet; cycle 32, + glucose): 5.074
- Fluorescence raw data, Channel Cycling A.530/585hp (E. coli AG100tet; cycle 32, without glucose): 3.301
- Fluorescence raw data, Channel Cycling A.530/585hp (E. coli AG100tet; cycle 33, + glucose): 5.085
- Fluorescence raw data, Channel Cycling A.530/585hp (E. coli AG100tet; cycle 33, without glucose): 3.3487
- Fluorescence raw data, Channel Cycling A.530/585hp (E. coli AG100tet; cycle 34, + glucose): 5.136
- Fluorescence raw data, Channel Cycling A.530/585hp (E. coli AG100tet; cycle 34, without glucose): 3.377
- Fluorescence raw data, Channel Cycling A.530/585hp (E. coli AG100tet; cycle 35, + glucose): 5.101
- Fluorescence raw data, Channel Cycling A.530/585hp (E. coli AG100tet; cycle 35, without glucose): 3.39
- Fluorescence raw data, Channel Cycling A.530/585hp (E. coli AG100tet; cycle 36, + glucose): 5.167
- Fluorescence raw data, Channel Cycling A.530/585hp (E. coli AG100tet; cycle 36, without glucose): 3.3989
- Fluorescence raw data, Channel Cycling A.530/585hp (E. coli AG100tet; cycle 37, + glucose): 5.0249
- Fluorescence raw data, Channel Cycling A.530/585hp (E. coli AG100tet; cycle 37, without glucose): 3.336
- Fluorescence raw data, Channel Cycling A.530/585hp (E. coli AG100tet; cycle 38, + glucose): 5.139
- Fluorescence raw data, Channel Cycling A.530/585hp (E. coli AG100tet; cycle 38, without glucose): 3.322
- Fluorescence raw data, Channel Cycling A.530/585hp (E. coli AG100tet; cycle 39, + glucose): 5.07
